± gives the expanded uncertainty stated by the source.
Experiment: activity coefficient (dimensionless); of the first substance listed, at infinite dilution; xn = mol fraction of the nth substance listed
Conditions: 101 kPa, Liquid, Chromatography, x1 = 0

Structure (SMILES) | activity coefficient (298.15 K) | activity coefficient (308.15 K) | activity coefficient (318.15 K) | activity coefficient (328.15 K) | activity coefficient (338.15 K) | activity coefficient (348.15 K) | activity coefficient (358.15 K) | activity coefficient (368.15 K)
O [water] + CCCCCCOCn1cc[n+](COCCCCCC)c1.O=S(=O)([N-]S(=O)(=O)C(F)(F)F)C(F)(F)F | 4.43 ± 0.3 | 3.8 ± 0.26 | 3.31 ± 0.23 | 2.93 ± 0.2 | 2.53 ± 0.17 | 2.24 ± 0.15 | 2.02 ± 0.14 | 1.83 ± 0.12
CCc1ccccc1 [ethylbenzene] + CCCCCCOCn1cc[n+](COCCCCCC)c1.O=S(=O)([N-]S(=O)(=O)C(F)(F)F)C(F)(F)F | 0.967 ± 0.061 | 0.966 ± 0.061 | 0.965 ± 0.061 | 0.964 ± 0.061 | 0.963 ± 0.061 | 0.963 ± 0.061 | 0.962 ± 0.06 | –
c1ccccc1 [benzene] + CCCCCCOCn1cc[n+](COCCCCCC)c1.O=S(=O)([N-]S(=O)(=O)C(F)(F)F)C(F)(F)F | 0.608 ± 0.043 | 0.608 ± 0.043 | 0.607 ± 0.042 | 0.607 ± 0.042 | 0.606 ± 0.042 | 0.606 ± 0.042 | 0.606 ± 0.042 | 0.606 ± 0.042
CCCCCCCC [octane] + CCCCCCOCn1cc[n+](C)c1.O=S(=O)([N-]S(=O)(=O)C(F)(F)F)C(F)(F)F | 13.6 ± 0.9 | 12.8 ± 0.9 | 12.1 ± 0.8 | 11.5 ± 0.8 | 10.9 ± 0.7 | 10.4 ± 0.7 | 10 ± 0.7 | 9.51 ± 0.65
C#CCCCCCC [1-octyne] + CCCCCCOCn1cc[n+](C)c1.O=S(=O)([N-]S(=O)(=O)C(F)(F)F)C(F)(F)F | 3.15 ± 0.21 | 3.14 ± 0.21 | 3.13 ± 0.21 | 3.13 ± 0.21 | 3.12 ± 0.21 | 3.11 ± 0.21 | 3.11 ± 0.21 | 3.1 ± 0.21
C1CCCCC1 [cyclohexane] + CCCCCCOCn1cc[n+](COCCCCCC)c1.O=S(=O)([N-]S(=O)(=O)C(F)(F)F)C(F)(F)F | 2.32 ± 0.16 | 2.22 ± 0.15 | 2.15 ± 0.15 | 2.08 ± 0.14 | 2.01 ± 0.14 | 1.94 ± 0.13 | 1.89 ± 0.13 | 1.84 ± 0.12
CCCOCCC [dipropyl ether] + CCCCCCOCn1cc[n+](COCCCCCC)c1.O=S(=O)([N-]S(=O)(=O)C(F)(F)F)C(F)(F)F | 1.49 ± 0.098 | 1.49 ± 0.098 | 1.49 ± 0.098 | 1.5 ± 0.098 | 1.5 ± 0.099 | 1.5 ± 0.099 | 1.5 ± 0.099 | 1.5 ± 0.099
C1CCCC1 [cyclopentane] + CCCCCCOCn1cc[n+](C)c1.O=S(=O)([N-]S(=O)(=O)C(F)(F)F)C(F)(F)F | 4.19 ± 0.29 | 3.99 ± 0.27 | 3.82 ± 0.26 | 3.66 ± 0.25 | 3.51 ± 0.24 | 3.38 ± 0.23 | 3.27 ± 0.22 | 3.16 ± 0.22
C#CCCC [1-pentyne] + CCCCCCOCn1cc[n+](COCCCCCC)c1.O=S(=O)([N-]S(=O)(=O)C(F)(F)F)C(F)(F)F | 0.992 ± 0.062 | 0.997 ± 0.062 | 1 ± 0.063 | 1.01 ± 0.063 | 1.01 ± 0.063 | 1.02 ± 0.064 | 1.02 ± 0.064 | 1.02 ± 0.064
CCCCCCCCCC [decane] + CCCCCCOCn1cc[n+](C)c1.O=S(=O)([N-]S(=O)(=O)C(F)(F)F)C(F)(F)F | 23.5 ± 1.6 | 21.7 ± 1.5 | 20.2 ± 1.4 | 18.9 ± 1.3 | 17.7 ± 1.2 | 16.7 ± 1.1 | 15.8 ± 1.1 | 14.9 ± 1
Cc1ccccc1C [1,2-dimethylbenzene] + CCCCCCOCn1cc[n+](C)c1.O=S(=O)([N-]S(=O)(=O)C(F)(F)F)C(F)(F)F | – | – | 1.33 ± 0.086 | 1.34 ± 0.087 | 1.35 ± 0.087 | 1.35 ± 0.088 | 1.36 ± 0.088 | 1.36 ± 0.089
C#CCCCCC [1-heptyne] + CCCCCCOCn1cc[n+](COCCCCCC)c1.O=S(=O)([N-]S(=O)(=O)C(F)(F)F)C(F)(F)F | 1.37 ± 0.089 | 1.38 ± 0.09 | 1.39 ± 0.09 | 1.39 ± 0.091 | 1.4 ± 0.091 | 1.4 ± 0.092 | 1.41 ± 0.092 | 1.42 ± 0.093
Cc1ccc(C)cc1 [1,4-dimethylbenzene] + CCCCCCOCn1cc[n+](COCCCCCC)c1.O=S(=O)([N-]S(=O)(=O)C(F)(F)F)C(F)(F)F | – | – | 0.949 ± 0.06 | 0.952 ± 0.06 | 0.955 ± 0.06 | 0.958 ± 0.06 | 0.96 ± 0.06 | 0.962 ± 0.06
COC(C)(C)C [2-methoxy-2-methylpropane] + CCCCCCOCn1cc[n+](COCCCCCC)c1.O=S(=O)([N-]S(=O)(=O)C(F)(F)F)C(F)(F)F | 0.759 ± 0.05 | 0.78 ± 0.051 | 0.801 ± 0.052 | 0.821 ± 0.053 | 0.841 ± 0.054 | 0.859 ± 0.055 | 0.877 ± 0.056 | 0.896 ± 0.057
Cc1ccccc1 [toluene] + CCCCCCOCn1cc[n+](COCCCCCC)c1.O=S(=O)([N-]S(=O)(=O)C(F)(F)F)C(F)(F)F | – | 0.743 ± 0.049 | 0.746 ± 0.049 | 0.749 ± 0.049 | 0.753 ± 0.05 | 0.756 ± 0.05 | 0.758 ± 0.05 | 0.761 ± 0.05
c1ccsc1 [thiophene] + CCCCCCOCn1cc[n+](C)c1.O=S(=O)([N-]S(=O)(=O)C(F)(F)F)C(F)(F)F | 0.743 ± 0.049 | 0.744 ± 0.049 | 0.744 ± 0.049 | 0.745 ± 0.049 | 0.746 ± 0.049 | 0.746 ± 0.049 | 0.747 ± 0.049 | 0.747 ± 0.049
CCCCC [pentane] + CCCCCCOCn1cc[n+](C)c1.O=S(=O)([N-]S(=O)(=O)C(F)(F)F)C(F)(F)F | 7.34 ± 0.5 | 6.93 ± 0.47 | 6.54 ± 0.45 | 6.25 ± 0.43 | 5.92 ± 0.4 | 5.68 ± 0.39 | 5.43 ± 0.37 | 5.21 ± 0.36
CCCO [propan-1-ol] + CCCCCCOCn1cc[n+](C)c1.O=S(=O)([N-]S(=O)(=O)C(F)(F)F)C(F)(F)F | 1.83 ± 0.12 | 1.64 ± 0.11 | 1.49 ± 0.1 | 1.36 ± 0.09 | 1.24 ± 0.08 | 1.15 ± 0.07 | 1.07 ± 0.07 | 0.989 ± 0.062
CCCCCCCCC [nonane] + CCCCCCOCn1cc[n+](C)c1.O=S(=O)([N-]S(=O)(=O)C(F)(F)F)C(F)(F)F | 17.8 ± 1.2 | 16.6 ± 1.1 | 15.5 ± 1.1 | 14.6 ± 1 | 13.8 ± 0.9 | 13.2 ± 0.9 | 12.4 ± 0.8 | 11.9 ± 0.8
C=CCCCC [hex-1-ene] + CCCCCCOCn1cc[n+](C)c1.O=S(=O)([N-]S(=O)(=O)C(F)(F)F)C(F)(F)F | 4.89 ± 0.33 | 4.72 ± 0.32 | 4.59 ± 0.31 | 4.46 ± 0.3 | 4.33 ± 0.29 | 4.23 ± 0.29 | 4.12 ± 0.28 | 4.03 ± 0.27
C1CCCCCC1 [cycloheptane] + CCCCCCOCn1cc[n+](COCCCCCC)c1.O=S(=O)([N-]S(=O)(=O)C(F)(F)F)C(F)(F)F | 2.71 ± 0.18 | 2.6 ± 0.18 | 2.5 ± 0.17 | 2.41 ± 0.16 | 2.33 ± 0.16 | 2.25 ± 0.15 | 2.19 ± 0.15 | 2.12 ± 0.14
COC(C)(C)C [2-methoxy-2-methylpropane] + CCCCCCOCn1cc[n+](C)c1.O=S(=O)([N-]S(=O)(=O)C(F)(F)F)C(F)(F)F | 1.26 ± 0.08 | 1.29 ± 0.08 | 1.32 ± 0.09 | 1.36 ± 0.09 | 1.39 ± 0.09 | 1.41 ± 0.09 | 1.44 ± 0.09 | 1.46 ± 0.1
CCO [ethanol] + CCCCCCOCn1cc[n+](COCCCCCC)c1.O=S(=O)([N-]S(=O)(=O)C(F)(F)F)C(F)(F)F | 1.25 ± 0.08 | 1.14 ± 0.07 | 1.04 ± 0.065 | 0.958 ± 0.06 | 0.886 ± 0.056 | 0.824 ± 0.053 | 0.767 ± 0.05 | 0.719 ± 0.048
Cc1cccc(C)c1 [1,3-dimethylbenzene] + CCCCCCOCn1cc[n+](C)c1.O=S(=O)([N-]S(=O)(=O)C(F)(F)F)C(F)(F)F | – | – | 1.45 ± 0.095 | 1.46 ± 0.096 | 1.47 ± 0.096 | 1.48 ± 0.097 | 1.48 ± 0.098 | 1.49 ± 0.098
CCCOCCC [dipropyl ether] + CCCCCCOCn1cc[n+](C)c1.O=S(=O)([N-]S(=O)(=O)C(F)(F)F)C(F)(F)F | 2.92 ± 0.2 | 2.89 ± 0.2 | 2.87 ± 0.2 | 2.85 ± 0.19 | 2.83 ± 0.19 | 2.81 ± 0.19 | 2.79 ± 0.19 | 2.77 ± 0.19
CCc1ccccc1 [ethylbenzene] + CCCCCCOCn1cc[n+](C)c1.O=S(=O)([N-]S(=O)(=O)C(F)(F)F)C(F)(F)F | – | 1.49 ± 0.098 | 1.49 ± 0.098 | 1.49 ± 0.098 | 1.5 ± 0.098 | 1.5 ± 0.099 | 1.5 ± 0.099 | 1.5 ± 0.099

— the NIST ThermoML archive (doi:10.1016/j.fluid.2009.08.017)
